{"source": "paper PMC7271024", "about": "“N1-Benzofused Modification of Fluoroquinolones Reduces Activity Against Gram-Negative Bacteria” (ACS Omega, 2020)", "key": {"[1]": {"tested_on": "panel of Gram-negative pathogens", "experiment": "MIC panel, statements across strains", "assay_type": "cell-based, K. pneumoniae, A. baumannii, P. aeruginosa, E. coli", "details": "versus ciprofloxacin", "protocol": "(§1) The antibacterial activities of the synthesized fluoroquinolones were evaluated against a panel of Gram-negative pathogens including K. pneumoniae (NCTC 13368, M6), Acinetobacter baumannii (AYE, ATCC 17978), Pseudomonas aeruginosa (PAO1, NCTC 13437), and Escherichia coli (NCTC 12923, LEC001). The ability of molecules to permeate the Gram-negative outer membrane was investigated by adding membrane permeabilizer polymyxin B nonapeptide (PMBN) at sub-inhibitory concentrations (Table 2). Phenylalanine–arginine β-naphthylamide (PAβN) was used to investigate efflux of compounds by resistance–nodulation–division (RND)-family efflux pumps (Table 3).\n(§2) Minimal inhibitory concentrations (MICs) were determined using the microdilution broth method. Briefly, compounds were added to the first two columns of a 96-well plate and diluted two-fold down the plate in tryptic soy broth. Overnight cultures of bacteria were then adjusted to a concentration of 1 × 10^6 CFU/mL and added to each well for a final concentration of 5 × 10^5 CFU/mL."}, "P. aeruginosa NCTC 13437": {"tested_on": "P. aeruginosa NCTC 13437", "experiment": "MIC, microdilution broth method", "assay_type": "cell-based, Pseudomonas aeruginosa", "details": "Pseudomonas aeruginosa", "protocol": "as §1, §2"}, "P. aeruginosa DNA gyrase": {"target": "T1, P. aeruginosa DNA gyrase (Pseudomonas aeruginosa, UniProt P48372+Q9I7C2)", "T1 construct": "purchased Inspiralis (Norwich, UK) PAS001", "T1 sequence (Q9I7C2 whole entry)": "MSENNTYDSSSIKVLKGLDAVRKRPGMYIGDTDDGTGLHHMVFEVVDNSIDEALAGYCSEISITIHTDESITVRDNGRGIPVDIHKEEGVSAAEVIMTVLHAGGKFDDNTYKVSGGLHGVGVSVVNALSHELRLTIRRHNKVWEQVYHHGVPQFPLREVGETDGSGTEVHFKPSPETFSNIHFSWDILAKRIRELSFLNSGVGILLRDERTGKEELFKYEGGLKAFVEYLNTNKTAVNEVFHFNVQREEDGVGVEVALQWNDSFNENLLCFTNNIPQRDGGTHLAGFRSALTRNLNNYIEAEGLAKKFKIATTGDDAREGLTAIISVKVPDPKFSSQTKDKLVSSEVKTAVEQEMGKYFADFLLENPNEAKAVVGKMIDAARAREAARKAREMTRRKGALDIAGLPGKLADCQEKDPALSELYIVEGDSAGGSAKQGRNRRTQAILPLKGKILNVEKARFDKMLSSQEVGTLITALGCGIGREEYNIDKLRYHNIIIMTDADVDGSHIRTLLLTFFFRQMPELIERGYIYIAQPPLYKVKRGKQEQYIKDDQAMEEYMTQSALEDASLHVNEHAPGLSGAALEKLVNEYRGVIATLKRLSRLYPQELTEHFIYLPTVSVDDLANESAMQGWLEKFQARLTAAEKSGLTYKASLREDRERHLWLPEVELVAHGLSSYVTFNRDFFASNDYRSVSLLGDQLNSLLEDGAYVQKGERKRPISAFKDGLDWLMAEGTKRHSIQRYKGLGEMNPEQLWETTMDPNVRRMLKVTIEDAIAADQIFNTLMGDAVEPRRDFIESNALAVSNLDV", "T1 sequence (P48372 whole entry)": "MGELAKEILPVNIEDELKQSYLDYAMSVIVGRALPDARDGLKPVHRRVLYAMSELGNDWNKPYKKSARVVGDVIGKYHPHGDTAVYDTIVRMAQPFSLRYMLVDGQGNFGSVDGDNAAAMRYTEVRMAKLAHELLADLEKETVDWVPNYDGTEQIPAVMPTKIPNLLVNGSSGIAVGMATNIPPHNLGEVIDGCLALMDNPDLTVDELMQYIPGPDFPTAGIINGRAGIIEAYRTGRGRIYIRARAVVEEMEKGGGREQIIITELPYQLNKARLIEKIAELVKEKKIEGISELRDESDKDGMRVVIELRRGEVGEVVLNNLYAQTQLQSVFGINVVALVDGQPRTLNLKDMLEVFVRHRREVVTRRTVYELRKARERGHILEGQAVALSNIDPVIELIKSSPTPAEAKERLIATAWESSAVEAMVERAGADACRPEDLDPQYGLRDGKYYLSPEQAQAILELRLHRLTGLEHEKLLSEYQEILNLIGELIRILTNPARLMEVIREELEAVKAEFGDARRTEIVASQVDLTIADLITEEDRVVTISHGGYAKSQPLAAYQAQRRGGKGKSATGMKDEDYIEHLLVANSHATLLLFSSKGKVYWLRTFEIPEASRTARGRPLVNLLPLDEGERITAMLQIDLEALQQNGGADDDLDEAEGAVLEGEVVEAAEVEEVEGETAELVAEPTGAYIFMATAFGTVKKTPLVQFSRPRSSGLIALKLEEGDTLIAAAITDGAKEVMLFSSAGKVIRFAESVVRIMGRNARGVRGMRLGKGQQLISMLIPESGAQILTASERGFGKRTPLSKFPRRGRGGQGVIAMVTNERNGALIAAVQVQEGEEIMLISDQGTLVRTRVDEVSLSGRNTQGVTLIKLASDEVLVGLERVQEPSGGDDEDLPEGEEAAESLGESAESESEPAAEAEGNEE", "experiment": "Cell-free gyrase supercoiling inhibition assay", "assay_type": "biochemical", "details": "purified enzyme, cell-free supercoiling kit"}, "A. baumannii AYE": {"tested_on": "A. baumannii AYE", "experiment": "MIC, microdilution broth method", "assay_type": "cell-based, Acinetobacter baumannii", "details": "for MIC: Acinetobacter baumannii", "protocol": "as §1, §2"}, "E. coli LEC001": {"tested_on": "E. coli LEC001", "experiment": "MIC, microdilution broth method", "assay_type": "cell-based, Escherichia coli", "details": "for MIC: Escherichia coli", "protocol": "as §1, §2"}, "E. coli DNA gyrase": {"target": "T2, E. coli DNA gyrase (Escherichia coli, UniProt P0AES4+P0AES6)", "T2 construct": "purchased Inspiralis (Norwich, UK) K0001", "T2 sequence (P0AES4 whole entry, one chain of several)": "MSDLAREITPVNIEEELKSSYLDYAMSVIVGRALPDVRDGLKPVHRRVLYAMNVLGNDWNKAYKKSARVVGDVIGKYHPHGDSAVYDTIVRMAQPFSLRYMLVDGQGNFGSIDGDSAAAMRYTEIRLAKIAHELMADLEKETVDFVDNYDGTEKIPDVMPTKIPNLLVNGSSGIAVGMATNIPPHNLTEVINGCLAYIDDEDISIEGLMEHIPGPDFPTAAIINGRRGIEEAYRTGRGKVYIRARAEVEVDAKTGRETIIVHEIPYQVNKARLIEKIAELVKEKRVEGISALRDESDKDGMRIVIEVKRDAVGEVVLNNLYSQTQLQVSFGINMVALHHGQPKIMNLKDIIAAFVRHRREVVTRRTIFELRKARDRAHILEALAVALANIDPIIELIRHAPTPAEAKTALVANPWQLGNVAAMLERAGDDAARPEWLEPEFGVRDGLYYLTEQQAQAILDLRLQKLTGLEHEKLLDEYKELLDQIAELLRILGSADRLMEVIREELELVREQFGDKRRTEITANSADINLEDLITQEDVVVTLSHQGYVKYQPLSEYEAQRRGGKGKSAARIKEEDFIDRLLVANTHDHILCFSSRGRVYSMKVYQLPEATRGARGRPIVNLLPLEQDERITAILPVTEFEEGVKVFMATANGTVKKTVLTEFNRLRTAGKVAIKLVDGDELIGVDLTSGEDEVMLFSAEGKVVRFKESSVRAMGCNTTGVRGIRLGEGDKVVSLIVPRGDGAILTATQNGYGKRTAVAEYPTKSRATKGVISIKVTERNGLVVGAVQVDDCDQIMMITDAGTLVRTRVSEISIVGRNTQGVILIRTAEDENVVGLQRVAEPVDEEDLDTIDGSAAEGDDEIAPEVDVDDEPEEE", "experiment": "Cell-free gyrase supercoiling inhibition assay", "assay_type": "biochemical", "details": "purified enzyme, cell-free supercoiling kit"}, "[2]": {"experiment": "Solubility as observed in the MIC and enzyme experiments", "assay_type": "physicochemical", "details": "S. aureus DNA gyrase / topoisomerase IV assay media, at the high concentrations required", "protocol": "In vitro activity assays using purified S. aureus, E. coli and P. aeruginosa DNA gyrase, and S. aureus topoisomerase IV enzymes were performed in order to evaluate whether the gains in inhibitory activity predicted for the benzofused compounds were accurate. The benzothiophene-containing 6e was selected as a representative compound for the purposes of this experiment. […].\nA general correlation between N1 substituent hydrophobicity and activity is observed; […]."}, "K. pneumoniae M6": {"tested_on": "K. pneumoniae M6", "experiment": "MIC, microdilution broth method", "assay_type": "cell-based, Klebsiella pneumoniae", "details": "for MIC: Klebsiella pneumoniae"}, "P. aeruginosa PAO1": {"tested_on": "P. aeruginosa PAO1", "experiment": "MIC, microdilution broth method", "assay_type": "cell-based, Pseudomonas aeruginosa", "details": "Pseudomonas aeruginosa"}, "K. pneumoniae NCTC 13368": {"tested_on": "K. pneumoniae NCTC 13368", "experiment": "MIC, microdilution broth method", "assay_type": "cell-based, Klebsiella pneumoniae", "details": "for MIC: Klebsiella pneumoniae", "protocol": "as §1, §2"}, "E. coli NCTC 12923": {"tested_on": "E. coli NCTC 12923", "experiment": "MIC, microdilution broth method", "assay_type": "cell-based, Escherichia coli", "details": "for MIC: Escherichia coli"}, "A. baumannii ATCC 17978": {"tested_on": "A. baumannii ATCC 17978", "experiment": "MIC, microdilution broth method", "assay_type": "cell-based, Acinetobacter baumannii", "details": "for MIC: Acinetobacter baumannii"}, "[3]": {"details": "PAβN, text names A. baumannii only"}, "[4]": {"details": "RND-family efflux inhibitor PAβN"}}, "data": [{"compound": "O=C(O)c1cn(-c2cccc3ccsc23)c2cc(N3CCNCC3)c(F)cc2c1=O", "note": "[Compound 6e]", "values": [{"measurement": "antibacterial activity", "setting": "[1]", "result": "limited activity"}, {"measurement": "MIC", "setting": "P. aeruginosa NCTC 13437; NCTC13437, +PAβN (25 μg/mL), Table 3, strain R", "result": "> 32", "unit": "µg/mL"}, {"measurement": "MIC", "setting": "P. aeruginosa NCTC 13437; NCTC13437, +PMBN (30 μg/mL), ciprofloxacin-resistant strain (R)", "result": 32, "unit": "µg/mL"}, {"measurement": "MIC", "setting": "P. aeruginosa NCTC 13437; NCTC13437, –PAβN, Table 3, strain R", "result": "> 32", "unit": "µg/mL"}, {"measurement": "MIC", "setting": "P. aeruginosa NCTC 13437; NCTC13437, –PMBN, ciprofloxacin-resistant strain (R)", "result": "> 32", "unit": "µg/mL"}, {"measurement": "IC50", "setting": "P. aeruginosa DNA gyrase", "result": 15.8, "unit": "µM"}, {"measurement": "MIC", "setting": "A. baumannii AYE; +PAβN (25 μg/mL), Table 3, strain R", "result": "> 32", "unit": "µg/mL"}, {"measurement": "MIC", "setting": "A. baumannii AYE; +PMBN (30 μg/mL), ciprofloxacin-resistant strain (R)", "result": "> 32", "unit": "µg/mL"}, {"measurement": "MIC", "setting": "A. baumannii AYE; –PAβN, Table 3, strain R", "result": "> 32", "unit": "µg/mL"}, {"measurement": "MIC", "setting": "A. baumannii AYE; –PMBN, ciprofloxacin-resistant strain (R)", "result": "> 32", "unit": "µg/mL"}, {"measurement": "effect of PAβN on MIC", "setting": "A. baumannii AYE; [3]", "result": "Neither ciprofloxacin nor compound 6e showed any difference in MIC"}, {"measurement": "MIC", "setting": "E. coli LEC001; LEC001, +PAβN (25 μg/mL), Table 3, strain R", "result": "> 32", "unit": "µg/mL"}, {"measurement": "MIC", "setting": "E. coli LEC001; LEC001, +PMBN (30 μg/mL), ciprofloxacin-resistant strain (R)", "result": "> 32", "unit": "µg/mL"}, {"measurement": "MIC", "setting": "E. coli LEC001; LEC001, –PAβN, Table 3, strain R", "result": "> 32", "unit": "µg/mL"}, {"measurement": "MIC", "setting": "E. coli LEC001; LEC001, –PMBN, ciprofloxacin-resistant strain (R)", "result": "> 32", "unit": "µg/mL"}, {"measurement": "effect of PAβN on MIC", "setting": "E. coli LEC001; PAβN, text names E. coli only", "result": "No effect"}, {"measurement": "IC50", "setting": "E. coli DNA gyrase", "result": 6.38, "unit": "µM"}, {"measurement": "solubility in assay media", "setting": "[2]", "result": "poorly soluble"}, {"measurement": "MIC", "setting": "K. pneumoniae M6; M6, +PAβN (25 μg/mL), Table 3, strain S", "result": 1, "unit": "µg/mL"}, {"measurement": "MIC", "setting": "K. pneumoniae M6; M6, +PMBN (30 μg/mL), ciprofloxacin-sensitive strain (S)", "result": 2, "unit": "µg/mL"}, {"measurement": "MIC", "setting": "K. pneumoniae M6; M6, –PAβN, Table 3, strain S", "result": 8, "unit": "µg/mL"}, {"measurement": "MIC", "setting": "K. pneumoniae M6; M6, –PMBN, ciprofloxacin-sensitive strain (S)", "result": 8, "unit": "µg/mL"}, {"measurement": "potentiation of MIC by PMBN", "setting": "K. pneumoniae M6; MIC –PMBN vs +PMBN", "result": "2–4 fold"}, {"measurement": "effect of PAβN on MIC", "setting": "K. pneumoniae M6; [4]", "result": "significant potentiation"}, {"measurement": "MIC", "setting": "P. aeruginosa PAO1; PAO1, +PAβN (25 μg/mL), Table 3, strain S", "result": 2, "unit": "µg/mL"}, {"measurement": "MIC", "setting": "P. aeruginosa PAO1; PAO1, +PMBN (30 μg/mL), ciprofloxacin-sensitive strain (S)", "result": 2, "unit": "µg/mL"}, {"measurement": "MIC", "setting": "P. aeruginosa PAO1; PAO1, –PAβN, Table 3, strain S", "result": 32, "unit": "µg/mL"}, {"measurement": "MIC", "setting": "P. aeruginosa PAO1; PAO1, –PMBN, ciprofloxacin-sensitive strain (S)", "result": 32, "unit": "µg/mL"}, {"measurement": "MIC", "setting": "K. pneumoniae NCTC 13368; NCTC13368, +PAβN (25 μg/mL), Table 3, strain R", "result": 4, "unit": "µg/mL"}, {"measurement": "MIC", "setting": "K. pneumoniae NCTC 13368; NCTC13368, +PMBN (30 μg/mL), ciprofloxacin-resistant strain (R)", "result": 8, "unit": "µg/mL"}, {"measurement": "MIC", "setting": "K. pneumoniae NCTC 13368; NCTC13368, –PAβN, Table 3, strain R", "result": "> 32", "unit": "µg/mL"}, {"measurement": "MIC", "setting": "K. pneumoniae NCTC 13368; NCTC13368, –PMBN, ciprofloxacin-resistant strain (R)", "result": 32, "unit": "µg/mL"}, {"measurement": "potentiation of MIC by PMBN", "setting": "K. pneumoniae NCTC 13368; MIC –PMBN vs +PMBN", "result": "4–8 fold"}, {"measurement": "effect of PAβN on MIC", "setting": "K. pneumoniae NCTC 13368; [4]", "result": "significant potentiation"}, {"measurement": "MIC", "setting": "E. coli NCTC 12923; NCTC12923, +PAβN (25 μg/mL), Table 3, strain S", "result": 0.25, "unit": "µg/mL"}, {"measurement": "MIC", "setting": "E. coli NCTC 12923; NCTC12923, +PMBN (30 μg/mL), ciprofloxacin-sensitive strain (S)", "result": 1, "unit": "µg/mL"}, {"measurement": "MIC", "setting": "E. coli NCTC 12923; NCTC12923, –PAβN, Table 3, strain S", "result": "0.25 to 2", "unit": "µg/mL"}, {"measurement": "MIC", "setting": "E. coli NCTC 12923; NCTC12923, –PMBN, ciprofloxacin-sensitive strain (S)", "result": 4, "unit": "µg/mL"}, {"measurement": "effect of PAβN on MIC", "setting": "E. coli NCTC 12923; PAβN, text names E. coli only", "result": "No effect"}, {"measurement": "MIC", "setting": "A. baumannii ATCC 17978; ATCC17978, +PAβN (25 μg/mL), Table 3, strain S", "result": 4, "unit": "µg/mL"}, {"measurement": "MIC", "setting": "A. baumannii ATCC 17978; ATCC17978, +PMBN (30 μg/mL), ciprofloxacin-sensitive strain (S)", "result": 4, "unit": "µg/mL"}, {"measurement": "MIC", "setting": "A. baumannii ATCC 17978; ATCC17978, –PAβN, Table 3, strain S", "result": 4, "unit": "µg/mL"}, {"measurement": "MIC", "setting": "A. baumannii ATCC 17978; ATCC17978, –PMBN, ciprofloxacin-sensitive strain (S)", "result": 8, "unit": "µg/mL"}, {"measurement": "potentiation of MIC by PMBN", "setting": "A. baumannii ATCC 17978; MIC –PMBN vs +PMBN", "result": 2, "unit": "fold"}, {"measurement": "effect of PAβN on MIC", "setting": "A. baumannii ATCC 17978; [3]", "result": "Neither ciprofloxacin nor compound 6e showed any difference in MIC"}]}]}
